Assay results published in ChEMBL document CHEMBL1201862, “PubChem BioAssay data set” (2004).
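Five concentrations, 48 hours, 96-well plates. GI50 is the concentration that inhibits growth by half.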 Activity calls are given as the source filed them. No stated cut-off is given here; in the data, active = GI50 up to about 1.1 µM and inactive = higher.

Legend:
Experiment in all cases: NCI anticancer screen, dose series, 48 h
RXF 631 = system: RXF 631
LXFL 529 = system: LXFL 529
M19-MEL = system: M19-MEL
DMS-114 = system: DMS-114
XF498 = system: XF498
Hs-578T = system: Hs-578T
T47D = system: T47D
HOP-18 = system: HOP-18
KM-20L2 = system: KM-20L2

Measured: GI50

CCCCCCCCCCCCCCCCOCC(CP(=O)([O-])OCC[n+]1ccccc1)OC (stereo unspecified)
inactive: RXF 631 14.6 µM | LXFL 529 11.4 µM | M19-MEL 12.4 µM | DMS-114 11.4 µM | XF498 12.1 µM

COc1ccc(C(=O)/C=C/c2ccc(OCC(=O)N3CCN(c4ccccc4)CC3)cc2)cc1
inactive: Hs-578T > 40.7 µM | LXFL 529 > 65.8 µM | M19-MEL > 100 µM | DMS-114 > 90.6 µM | T47D 35.6 µM | HOP-18 > 100 µM | XF498 35.9 µM | KM-20L2 > 100 µM

COc1ccc(NC(=O)CC(=O)N2N=C(N(CCC#N)c3ccccc3Cl)CC2c2ccccc2)cc1 (stereo unspecified)
inactive: RXF 631 > 100 µM | LXFL 529 > 100 µM | M19-MEL > 100 µM | DMS-114 > 100 µM | HOP-18 > 100 µM | XF498 > 100 µM | KM-20L2 > 100 µM

CC(C)=CC1(C)/C(=N\O)C(C)(CC(C)C)C(=O)N1O (stereo unspecified)
inactive: RXF 631 > 100 µM | LXFL 529 > 100 µM | M19-MEL > 100 µM | DMS-114 > 100 µM | XF498 11.3 µM | KM-20L2 > 100 µM

CC(=O)NC1=C(N)C(=O)c2ccccc2C1=O
inactive: RXF 631 > 100 µM | LXFL 529 45 µM | M19-MEL 19.4 µM | DMS-114 14.8 µM | HOP-18 > 100 µM | XF498 > 100 µM | KM-20L2 87.5 µM

COC(=O)c1nc(-c2ccc(Cl)c(Cl)c2)nc2ccccc12
inactive: RXF 631 > 67.6 µM | LXFL 529 > 27.1 µM | M19-MEL > 100 µM | DMS-114 19.8 µM | HOP-18 2.01 µM | XF498 6.81 µM | KM-20L2 > 100 µM

COc1cc2c(cc1OCc1ccccc1)CNCC2
inactive: RXF 631 > 100 µM | LXFL 529 > 100 µM | M19-MEL > 100 µM | DMS-114 > 100 µM | HOP-18 > 100 µM | XF498 > 100 µM | KM-20L2 > 100 µM

CC1=C(C(=O)Nc2ccccc2C)C(c2ccco2)C(C(=O)Nc2ccccc2C)=C(C)N1C
inactive: RXF 631 81.5 µM | LXFL 529 > 100 µM | M19-MEL > 100 µM | DMS-114 > 100 µM | HOP-18 > 100 µM | XF498 > 100 µM

Cn1cnc([N+](=O)[O-])c1Sc1nnc(C(F)(F)F)n1C
inactive: RXF 631 17.6 µM | LXFL 529 14.2 µM | M19-MEL 18.9 µM | DMS-114 34.6 µM | HOP-18 19.5 µM

COC(=O)C1=C(C(=O)OC)C(C(=O)OC)C(C(=O)OC)C(C(=O)OC)(C(=O)OC)C(C(=O)OC)=C1C(=O)OC (stereo unspecified)
inactive: Hs-578T 34.5 µM | LXFL 529 9.73 µM | M19-MEL 12.8 µM | DMS-114 8.91 µM | T47D 21.9 µM | HOP-18 17.1 µM | XF498 12.2 µM | KM-20L2 17.7 µM

O=C(O)C1=CNC(C(=O)O)=NN1
inactive: RXF 631 > 100 µM | LXFL 529 > 100 µM | M19-MEL > 100 µM | DMS-114 > 100 µM | HOP-18 > 100 µM | XF498 > 100 µM | KM-20L2 > 100 µM

C=C1[C@@H]2CCC(C)(C)[C@H]1CCC(=O)[C@@H]2C(=O)OC
inactive: RXF 631 > 100 µM | LXFL 529 > 100 µM | M19-MEL > 100 µM | DMS-114 > 100 µM | XF498 > 100 µM | KM-20L2 > 100 µM

CCc1cccc(C)c1NC(C)=O
inactive: RXF 631 > 100 µM | LXFL 529 > 100 µM | M19-MEL > 100 µM | DMS-114 > 100 µM | XF498 > 100 µM | KM-20L2 > 100 µM

Cc1cc(Cl)ccc1NC(=O)C1C(=O)N(c2ccc(Cl)cc2C)C(=O)/C1=N\NC(N)=S (stereo unspecified)
inactive: RXF 631 45.6 µM | LXFL 529 28.7 µM | M19-MEL 37.4 µM | DMS-114 31.6 µM | HOP-18 16.8 µM | KM-20L2 20.7 µM
